Results: PMC9495972, “Dissecting the Activity of Catechins as Incomplete Aldose Reductase Differential Inhibitors through Kinetic and Computational Approaches” (Biology, 2022)
“Also recorded” adds a separate entry of the source.

How the values were obtained:
[1] = biological target: T1, human recombinant AKR1B1 (Homo sapiens, UniProt P15121); experiment: AKR1B1 activity inhibition, decrease in absorbance at 340 nm linked to NADPH oxidation; format: biochemical; settings: for remaining activity at 800 µM: in the presence of 0.8 mM compound, read-out: residual activity; for IC50: 10 mU AKR1B1, 37 °C, pH 6.8, 95% CLs in text
T1 construct: made in house
Protocol: (§1) The AKR1B1 activity was determined at 37 °C, as previously described, monitoring the decrease in absorbance at 340 nm linked to NADPH oxidation (ε340 = 6.22 mM^−1·cm^−1) using a Biochrom Libra S60 spectrophotometer. The standard assay mixture (0.7 mL) contained 0.25 M sodium phosphate buffer pH 6.8, 0.18 mM NADPH, 0.4 M ammonium sulfate, 0.5 mM EDTA, and 4.7 mM GAL. One unit of enzyme activity is the amount of enzyme that catalyzes the conversion of 1 µmol of substrate/min in the above assay conditions.
IC50 values were determined by non-linear regression analysis using GraphPad Prism version 7.04 (GraphPad Software, San Diego, CA, USA). Values were obtained from at least six different inhibitors concentrations (each assayed at least in triplicate) and are reported with their 95% Confidence Limits (CLs). […] The final concentration of ethanol in the assay was never higher than 1%. […] The percentage of inhibition was calculated referring to an assay performed using the same solvent concentration in the absence of inhibitors.
(§2) The human recombinant AKR1B1 was expressed and purified to electrophoretic homogeneity, as previously described. […] The purified enzyme was stored at −80 °C in a 10 mM sodium phosphate buffer pH 7.0 containing 2 mM DTT and 30% (w/v) glycerol. Before use, AKR1B1 was extensively dialyzed against 10 mM sodium phosphate buffer pH 7.0.

[2] = biological target: T1, human recombinant AKR1B1; experiment: Inhibition kinetic analysis of AKR1B1-dependent reduction of L-idose, HNE and GSHNE; format: biochemical; settings: for k+4: kinetic constant of ternary complex EIS to products; for Km: in the absence of inhibitors, read-out: KM of the substrate; for Km / kcat (k+2) of the substrate: at least 20 independent experiments; for kcat (k+2) of the substrate: in the absence of the inhibitor
Protocol: as §1, §2
The kinetic parameters ^appkcat and ^appKM were evaluated by non-linear regression analysis of rate measurements vs. substrate concentration according to Michaelis-Menten equation. The analysis was performed through GraphPad Prism 7.04 software by a non-linear “Robust Regression” analysis in which each point is individually weighted through iterative weighing of the smallest squares. The same approach was adopted to analyze the dependence of ^appkcat, ^appKM, and ^appKM/^appkcat from the concentration of the inhibitors [I], making use of previously derived equations [27] (see text).
The hyperbolic kinetic equation for an incomplete mixed type of inhibition analyzed with both branches of product formation at the steady state and with the inhibitor binding at equilibrium, was defined using the apparent kinetic parameters ^appKM and ^appkcat (Equations (1)–(3), see ref [27] for further details). (1) kappcat=Ki*k+2+k+4[I]/Ki*+[I] (2) appKM=KMKi*+(Ki*/KiKM+k+4/k+1)[I]+k+4/Kik+1[I]^2/Ki*+[I] (3) appKM/appkcat= KMKi*+(Ki*/KiKM+k+4/k+1)[I]+k+4/Kik+1[I]^2/Ki*k+2+k+4[I]
Thus, ^appkcat and ^appKM values emerging from non-linear regression analysis of primary data (Figure 3) were analyzed through non-linear regression using Equations (1) and (2), respectively. […] The above starting values of kcat and KM derived from at least 20 independent experiments in which kinetic parameters were measured in the absence of inhibitors. […] The k+4 values are reported in Table 1 as the average of values emerging from ^appKM/^appkcat versus [I] (Equation (3) or Equation (4)) and 1/^appkcat versus [I] (Equation (1)) plots.

[3] = test system: AKR1B1; settings: cited from earlier work
[4] = test system: human AKR1B1; set-up: method as in PMID 32640594; settings: in the absence of GCG; cited from earlier work
[5] = test system: human AKR1B1; experiment: Docking, MD simulations and MM-PBSA binding free energy evaluations
Protocol: The X-ray structure of human AKR1B1 in complex with D-glyceraldehyde and the NADP cofactor (PDB code 3V36), as well as the co-crystal structure of human AKR1B1 in complex with a nitrofuryl-oxadiazol inhibitor (PDB code 2IKH), were downloaded from the Protein Data Bank. Molecular docking calculations were performed with GOLD 5.1 (CCDC Software Ltd., Cambridge, UK) with the Piecewise Linear Potential (PLP) fitness function; both the two X-ray structures and the previously predicted protein–substrate complexes (i.e., AKR1B1-L-idose, AKR1B1-HNE, and AKR1B1-GSHNE) were employed as the protein. […] When protein–substrate complexes were used as the receptor, the ten top-scored clusters of solutions in which the ligand formed at least one H-bond with the substrate were selected as the best clusters of solutions, which were considered for further analyses.
Molecular dynamics (MD) simulations were performed with AMBER 20 [32] using the ff14SB force field. General Amber force field (GAFF) parameters were used for the ligands, the substrates, and the cofactor, whose partial charges were calculated with the AM1-BCC method as implemented in the Antechamber suite of AMBER 20 (University of California, San Francisco, CA, USA). […] Each analyzed complex was placed in a rectangular parallelepiped water box, using the TIP3P explicit solvent model for water, and solvated with a 15 Å water cap. […]

[6] = GSHNE reduction, calculated using k+2 109 ± 8 min^−1
[7] = HNE reduction, calculated using k+2 78 ± 4 min^−1
[8] = L-idose reduction, calculated using k+2 195 ± 6 min^−1

Oc1cc(O)c2c(c1)O[C@H](c1ccc(O)c(O)c1)[C@H](O)C2 [EC, epicatechin]
remaining activity at 800 µM [1]: ~70%

O=C(O[C@@H]1Cc2c(O)cc(O)cc2O[C@@H]1c1ccc(O)c(O)c1)c1cc(O)c(O)c(O)c1 [ECG, epicatechin gallate]
IC50 ([1]; IC50 for GSHNE reduction, […] GSHNE as substrate): 143 µM
IC50 ([1]; IC50 for HNE reduction, 0.03 mM HNE as substrate): 257 µM
IC50 ([1]; IC50 for the reduction of L-idose, 8 mM L-idose as substrate): 67 µM
Ki/Ki* ([2]; GSHNE reduction): approximately 2
inhibition type ([2]; GSHNE reduction): mixed inhibition type
k+4/k+2 (%) [2, 6]: 14.3 ± 3.9%
k+4 ([2]; GSHNE reduction): 15.6 ± 4.3 min⁻¹
k+4/k+2 (%) [2, 7]: 8.6 ± 0.4%
k+4 ([2]; HNE reduction): 6.7 ± 2.7 min⁻¹
Ki ([2]; Ki*, GSHNE reduction, apparent dissociation constant of ternary complex EIS): 46 ± 11 µM
Ki ([2]; Ki*, HNE reduction, apparent dissociation constant of ternary complex EIS): 54 ± 9 µM
Ki ([2]; Ki*, L-idose reduction, apparent dissociation constant of ternary complex EIS): 46 ± 5 µM
Ki ([2]; Ki, GSHNE reduction, dissociation constant of enzyme-inhibitor complex): 91 ± 10 µM
Ki ([2]; Ki, HNE reduction, dissociation constant of enzyme-inhibitor complex): > 10000 µM
Ki ([2]; Ki, L-idose reduction, dissociation constant of enzyme-inhibitor complex): 116 ± 8 µM
inhibition type ([2]; L-idose reduction): mixed inhibition type
k+4/k+2 (%) [2, 8]: 2.7 ± 1.7%
k+4 ([2]; L-idose reduction): 5.2 ± 3.2 min⁻¹

Oc1cc(O)c2c(c1)O[C@H](c1cc(O)c(O)c(O)c1)[C@H](O)C2 [EGC, epigallocatechin]
inhibitory action on AKR1B1 (in words) [3]: inhibits AKR1B1 irrespective of the used substrate

O=C(O[C@@H]1Cc2c(O)cc(O)cc2O[C@@H]1c1cc(O)c(O)c(O)c1)c1cc(O)c(O)c(O)c1 [EGCG, epigallocatechin gallate]
inhibitory action on AKR1B1 (in words) [3]: preserved only HNE reduction; also recorded: act as ARDIs, even though not complete

O=C(O)c1cc(O)c(O)c(O)c1 [GA, gallic acid]
inhibitory action on AKR1B1 (in words) [3]: act as ARDIs, even though not complete

Oc1cc(O)c2c(c1)O[C@H](c1cc(O)c(O)c(O)c1)[C@@H](O)C2 [GC, gallocatechin]
remaining activity at 800 µM [1]: ~70%

O=C(O[C@@H]1Cc2c(O)cc(O)cc2O[C@H]1c1cc(O)c(O)c(O)c1)c1cc(O)c(O)c(O)c1 [GCG, gallocatechin gallate]
inhibition type ([2]; GSHNE reduction): uncompetitive inhibition
k+4 ([2]; GSHNE reduction): 6.0 ± 1.0 min⁻¹
k+4/k+2 (%) [2, 7]: 12.2 ± 1.1%
k+4 ([2]; HNE reduction): 9.5 ± 0.9 min⁻¹
inhibition type ([2]; L-idose reduction): mixed inhibition type
k+4/k+2 (%) [2, 8]: 2.9 ± 0.25%
k+4 ([2]; L-idose reduction): 5.6 ± 0.5 min⁻¹

CCCCCC(O)C(CC=O)SC[C@H](NC(=O)CC[C@H](N)C(=O)O)C(=O)NCC(=O)O (some centres unmarked) [GSHNE, 3-glutathionyl-4-hydroxynonanal adduct]
Km [2]: 120 ± 16 µM
kcat (k+2) of the substrate [2]: 1.82 ± 0.13 s⁻¹
binding affinity estimated for the substrate bound to AKR1B1 [4]: -30.3 kcal/mol

CCCCCC(O)/C=C/C=O (centres unmarked) [HNE, 4-hydroxynonenal]
Km [2]: 51 ± 5 µM
kcat (k+2) of the substrate [2]: 1.3 ± 0.067 s⁻¹
binding affinity estimated for the substrate bound to AKR1B1 [4]: -18.6 kcal/mol

O=C[C@H](O)[C@@H](O)[C@H](O)[C@@H](O)CO [L-idose]
Km [2]: 4260 ± 300 µM
kcat (k+2) of the substrate [2]: 3.25 ± 0.1 s⁻¹
increase in the binding affinity of the substrate for the complex ([5]; due to the presence of GCG): 32%
lowering of substrate binding free energy with GCG versus without ([5]; presence versus absence of GCG): 5.5 kcal/mol
binding affinity estimated for the substrate bound to AKR1B1 [4]: -17.4 kcal/mol

C[C@@H]1O[C@@H](O[C@H]2[C@H](O[C@H]3[C@H](O[C@H]4CC[C@@]5(C)[C@@H](CC[C@]6(C)[C@@H]5CC=C5[C@@H]7CC(C)(C)C[C@@H](O)[C@]7(C)CC[C@]56C)[C@@]4(C)CO)O[C@H](C(=O)O)[C@@H](O)[C@@H]3O)O[C@H](CO)[C@H](O)[C@@H]2O)[C@H](O)[C@H](O)[C@H]1O [soyasaponin Bb]
inhibitory action on AKR1B1 (in words) [3]: acting as ARDI

catechin gallate [CG]
inhibition type ([2]; GSHNE reduction): uncompetitive inhibition
k+4/k+2 (%) [2, 6]: 3.8 ± 0.8%
k+4 ([2]; GSHNE reduction): 4.1 ± 0.8 min⁻¹
k+4/k+2 (%) [2, 7]: approximately 6%
k+4 ([2]; HNE reduction): 4.7 ± 0.7 min⁻¹
inhibition type ([2]; L-idose reduction): mixed inhibition type
k+4/k+2 (%) [2, 8]: 0.7 ± 0.3%
k+4 ([2]; L-idose reduction): 1.4 ± 0.6 min⁻¹
